This note sets out measurements from ChEMBL document CHEMBL1151745, “Identification of potent, selective, and metabolically stable peptide antagonists to the calcitonin gene-related peptide (CGRP) receptor” (J Med Chem, 2008).

Activity calls are given as the source filed them. The calls are words filed in the database; no cut-off is given here. Where a SMILES comes first, the peptide text is derived from it. [ ]: non-standard residue; d: D form. Tpi = O=C(O)[C@@H]1Cc2c([nH]c3ccccc23)CN1; hArg = N=C(N)NCCCC[C@H](N)C(=O)O; Cit = NC(=O)NCCC[C@H](N)C(=O)O

This assay deals with Calcitonin gene-related peptide type 1 receptor (Homo sapiens) (UniProt Q16602). The experiment in a line: Agonist activity at human CGRP1 receptor in human SK-N-MC cells.
Chain of Calcitonin gene-related peptide type 1 receptor (Homo sapiens) (Q16602 whole entry, looked up): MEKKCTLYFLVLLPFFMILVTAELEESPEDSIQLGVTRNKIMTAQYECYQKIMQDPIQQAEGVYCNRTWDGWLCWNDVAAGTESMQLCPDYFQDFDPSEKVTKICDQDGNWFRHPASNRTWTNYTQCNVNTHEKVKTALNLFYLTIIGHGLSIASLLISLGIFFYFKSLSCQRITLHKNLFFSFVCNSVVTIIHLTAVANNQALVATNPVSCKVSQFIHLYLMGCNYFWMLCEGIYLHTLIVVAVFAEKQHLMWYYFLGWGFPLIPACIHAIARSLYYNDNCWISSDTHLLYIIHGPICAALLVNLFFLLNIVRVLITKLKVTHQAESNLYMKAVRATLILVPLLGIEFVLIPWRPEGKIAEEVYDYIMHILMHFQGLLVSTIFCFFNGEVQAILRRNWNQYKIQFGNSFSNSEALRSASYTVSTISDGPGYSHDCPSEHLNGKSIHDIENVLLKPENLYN
With `CC(=O)N[C@@H](Cc1c[nH]c2ccccc12)C(=O)N[C@H](C(=O)N[C@H](C(=O)N[C@@H](Cc1cnc[nH]1)C(=O)N[C@@H](CCCNC(N)=O)C(=O)N[C@@H](CC(C)C)C(=O)N[C@@H](C)C(=O)NCC(=O)N[C@@H](CC(C)C)C(=O)N[C@@H](CC(C)C)C(=O)N[C@@H](CO)C(=O)N[C@@H](CCCNC(N)=O)C(=O)N[C@@H](CO)C(=O)NCC(=O)NCC(=O)N[C@H](C(=O)N[C@H](C(=O)N[C@@H](CCCCNC(=N)N)C(=O)N[C@@H](CCCCN)C(=O)N[C@@H](CC(N)=O)C(=O)N[C@@H](Cc1ccccc1)C(=O)N[C@H](C(=O)N1CCC[C@H]1C(=O)N[C@H](C(=O)N[C@@H](CC(=O)O)C(=O)N[C@H](C(=O)NCC(=O)N1CCC[C@H]1C(=O)N1Cc2[nH]c3ccccc3c2C[C@H]1C(=O)N[C@@H](C)C(=O)N[C@@H](Cc1ccccc1)C(N)=O)C(C)C)[C@@H](C)O)C(C)C)C(C)C)C(C)C)[C@@H](C)O)C(C)C` (Ac-WVTH[Cit]LAGLLS[Cit]SGGVV[hArg]KNFVPTDVGP[Tpi]AF-NH2), the result was inactive. The same measure for `CC(=O)N[C@@H](Cc1c[nH]c2ccccc12)C(=O)N[C@H](C(=O)N[C@H](C(=O)N[C@@H](Cc1cnc[nH]1)C(=O)N[C@@H](CCCNC(N)=O)C(=O)N[C@@H](CC(C)C)C(=O)N[C@@H](C)C(=O)NCC(=O)N[C@@H](CC(C)C)C(=O)N[C@@H](CC(C)C)C(=O)N[C@@H](CO)C(=O)N[C@@H](CCCNC(=N)N)C(=O)N[C@@H](CO)C(=O)NCC(=O)NCC(=O)N[C@H](C(=O)N[C@H](C(=O)N[C@@H](CCCNC(=N)N)C(=O)N[C@@H](CCCCN)C(=O)N[C@@H](CC(N)=O)C(=O)N[C@@H](Cc1ccccc1)C(=O)N[C@H](C(=O)N1CCC[C@H]1C(=O)N[C@H](C(=O)N[C@@H](CC(=O)O)C(=O)N[C@H](C(=O)NCC(=O)N1CCC[C@H]1C(=O)N[C@@H](Cc1ccccc1)C(=O)N[C@@H](C)C(=O)N[C@@H](Cc1ccccc1)C(N)=O)C(C)C)[C@@H](C)O)C(C)C)C(C)C)C(C)C)[C@@H](C)O)C(C)C`: “inactive”; for `CC(=O)N[C@@H](Cc1c[nH]c2ccccc12)C(=O)N[C@H](C(=O)N[C@H]1CCC(=O)NCCCC[C@@H](C(=O)NCC(=O)N[C@H]2CCC(=O)NCCCC[C@@H](C(=O)NCC(=O)NCC(=O)N[C@H](C(=O)N[C@H](C(=O)N[C@@H](CCCCNC(=N)N)C(=O)N[C@@H](CCCCN)C(=O)N[C@@H](CC(N)=O)C(=O)N[C@@H](Cc3ccccc3)C(=O)N[C@H](C(=O)N3CCC[C@H]3C(=O)N[C@H](C(=O)N[C@@H](CC(=O)O)C(=O)N[C@H](C(=O)NCC(=O)N3CCC[C@H]3C(=O)N[C@@H](Cc3ccccc3)C(=O)N[C@@H](C)C(=O)N[C@@H](Cc3ccccc3)C(N)=O)C(C)C)[C@@H](C)O)C(C)C)C(C)C)C(C)C)NC(=O)[C@H](CCCNC(=N)N)NC(=O)[C@H](CO)NC(=O)[C@H](CC(C)C)NC2=O)NC(=O)[C@H](CC(C)C)NC(=O)[C@H](CCCNC(=N)N)NC(=O)[C@H](Cc2cnc[nH]2)NC1=O)C(C)C`: “inactive”.

Turning to `CC(=O)N[C@@H](Cc1c[nH]c2ccccc12)C(=O)N[C@H](C(=O)N[C@H](C(=O)N[C@@H](Cc1cnc[nH]1)C(=O)N[C@@H](CCCNC(=N)N)C(=O)N[C@@H](CC(C)C)C(=O)N[C@@H](C)C(=O)NCC(=O)N[C@@H](CC(C)C)C(=O)N[C@@H](CC(C)C)C(=O)N[C@@H](CO)C(=O)N[C@@H](CCCNC(N)=O)C(=O)N[C@@H](CO)C(=O)NCC(=O)NCC(=O)N[C@H](C(=O)N[C@H](C(=O)N[C@@H](CCCNC(=N)N)C(=O)N[C@@H](CCCCN)C(=O)N[C@@H](CC(N)=O)C(=O)N[C@@H](Cc1ccccc1)C(=O)N[C@H](C(=O)N1CCC[C@H]1C(=O)N[C@H](C(=O)N[C@@H](CC(=O)O)C(=O)N[C@H](C(=O)NCC(=O)N1CCC[C@H]1C(=O)N[C@@H](Cc1ccccc1)C(=O)N[C@@H](C)C(=O)N[C@@H](Cc1ccccc1)C(N)=O)C(C)C)[C@@H](C)O)C(C)C)C(C)C)C(C)C)[C@@H](C)O)C(C)C`, the result was inactive. The value for `CC(=O)N[C@@H](Cc1c[nH]c2ccccc12)C(=O)N[C@H](C(=O)N[C@H](C(=O)N[C@@H](Cc1cnc[nH]1)C(=O)N[C@@H](CCCNC(N)=O)C(=O)N[C@@H](CC(C)C)C(=O)N[C@@H](C)C(=O)NCC(=O)N[C@@H](CC(C)C)C(=O)N[C@@H](CC(C)C)C(=O)N[C@@H](CO)C(=O)N[C@@H](CCCNC(N)=O)C(=O)N[C@@H](CO)C(=O)NCC(=O)NCC(=O)N[C@H](C(=O)N[C@H](C(=O)N[C@@H](CCCCNC(=N)N)C(=O)N[C@@H](CCCCN)C(=O)N[C@@H](CC(N)=O)C(=O)N[C@@H](Cc1ccccc1)C(=O)N[C@H](C(=O)N1CCC[C@H]1C(=O)N[C@H](C(=O)N[C@@H](CC(=O)O)C(=O)N[C@H](C(=O)NCC(=O)N1Cc2[nH]c3ccccc3c2C[C@H]1C(=O)N[C@@H](Cc1ccccc1)C(=O)N[C@@H](C)C(=O)N[C@@H](Cc1ccccc1)C(N)=O)C(C)C)[C@@H](C)O)C(C)C)C(C)C)C(C)C)[C@@H](C)O)C(C)C` was “inactive”. The value for `CC(=O)N[C@@H](Cc1c[nH]c2ccccc12)C(=O)N[C@H](C(=O)N[C@H](C(=O)N[C@@H](Cc1cnc[nH]1)C(=O)N[C@@H](CCCNC(N)=O)C(=O)N[C@@H](CC(C)C)C(=O)N[C@@H](C)C(=O)NCC(=O)N[C@@H](CC(C)C)C(=O)N[C@@H](CC(C)C)C(=O)N[C@@H](CO)C(=O)N[C@@H](CCCNC(N)=O)C(=O)N[C@@H](CO)C(=O)NCC(=O)NCC(=O)N[C@H](C(=O)N[C@H](C(=O)N[C@@H](CCCCNC(=N)N)C(=O)N[C@@H](CCCCN)C(=O)N[C@@H](CC(N)=O)C(=O)N[C@@H](Cc1ccccc1)C(=O)N[C@H](C(=O)N1CCC[C@H]1C(=O)N[C@H](C(=O)N[C@@H](CC(=O)O)C(=O)N[C@H](C(=O)NCC(=O)N1CSC[C@H]1C(=O)N[C@@H](Cc1ccccc1)C(=O)N[C@@H](C)C(=O)N[C@@H](Cc1ccccc1)C(N)=O)C(C)C)[C@@H](C)O)C(C)C)C(C)C)C(C)C)[C@@H](C)O)C(C)C` was “inactive”.

Regarding `CC(=O)N[C@@H](Cc1c[nH]c2ccccc12)C(=O)N[C@H](C(=O)N[C@H]1CCC(=O)NCCCC[C@@H](C(=O)NCC(=O)N[C@@H](CC(C)C)C(=O)N[C@@H](CC(C)C)C(=O)N[C@@H](CO)C(=O)N[C@@H](CCCNC(=N)N)C(=O)N[C@@H](CO)C(=O)NCC(=O)NCC(=O)N[C@H](C(=O)N[C@H](C(=O)N[C@@H](CCCNC(=N)N)C(=O)N[C@@H](CCCCN)C(=O)N[C@@H](CC(N)=O)C(=O)N[C@@H](Cc2ccccc2)C(=O)N[C@H](C(=O)N2CCC[C@H]2C(=O)N[C@H](C(=O)N[C@@H](CC(=O)O)C(=O)N[C@H](C(=O)NCC(=O)N2CCC[C@H]2C(=O)N[C@@H](Cc2ccccc2)C(=O)N[C@@H](C)C(=O)N[C@@H](Cc2ccccc2)C(N)=O)C(C)C)[C@@H](C)O)C(C)C)C(C)C)C(C)C)NC(=O)[C@H](CC(C)C)NC(=O)[C@H](CCCNC(=N)N)NC(=O)[C@H](Cc2cnc[nH]2)NC1=O)C(C)C`, the outcome was inactive. The value for `CC(=O)N[C@@H](Cc1c[nH]c2ccccc12)C(=O)N[C@H](C(=O)N[C@H](C(=O)N[C@@H](Cc1cnc[nH]1)C(=O)N[C@@H](CCCNC(N)=O)C(=O)N[C@@H](CC(C)C)C(=O)N[C@@H](C)C(=O)NCC(=O)N[C@@H](CC(C)C)C(=O)N[C@@H](CC(C)C)C(=O)N[C@@H](CO)C(=O)N[C@@H](CCCNC(N)=O)C(=O)N[C@@H](CO)C(=O)NCC(=O)NCC(=O)N[C@H](C(=O)N[C@H](C(=O)N[C@@H](CCCCNC(=N)N)C(=O)N[C@@H](CCCCN)C(=O)N[C@@H](CC(N)=O)C(=O)N[C@@H](Cc1ccccc1)C(=O)N[C@H](C(=O)N1CCC[C@H]1C(=O)N[C@H](C(=O)N[C@@H](CC(=O)O)C(=O)N[C@H](C(=O)NCC(=O)N1CCC[C@@H]1C(=O)N[C@@H](Cc1ccc(-c2ccccc2)cc1)C(=O)N[C@@H](C)C(=O)N[C@@H](Cc1ccccc1)C(N)=O)C(C)C)[C@@H](C)O)C(C)C)C(C)C)C(C)C)[C@@H](C)O)C(C)C` was “inactive”; that for `CC(=O)N[C@@H](Cc1c[nH]c2ccccc12)C(=O)N[C@H](C(=O)N[C@H](C(=O)N[C@@H](Cc1cnc[nH]1)C(=O)N[C@@H](CCCNC(N)=O)C(=O)N[C@@H](CC(C)C)C(=O)N[C@@H](C)C(=O)NCC(=O)N[C@@H](CC(C)C)C(=O)N[C@@H](CC(C)C)C(=O)N[C@@H](CO)C(=O)N[C@@H](CCCNC(N)=O)C(=O)N[C@@H](CO)C(=O)NCC(=O)NCC(=O)N[C@H](C(=O)N[C@H](C(=O)N[C@@H](CCCNC(=N)N)C(=O)N[C@@H](CCCCN)C(=O)N[C@@H](CC(N)=O)C(=O)N[C@@H](Cc1ccccc1)C(=O)N[C@H](C(=O)N1CCC[C@H]1C(=O)N[C@H](C(=O)N[C@@H](CC(=O)O)C(=O)N[C@H](C(=O)NCC(=O)N1C2CCCCC2C[C@H]1C(=O)N[C@@H](Cc1ccccc1)C(=O)N[C@@H](C)C(=O)N[C@@H](Cc1ccccc1)C(N)=O)C(C)C)[C@@H](C)O)C(C)C)C(C)C)C(C)C)[C@@H](C)O)C(C)C` (stereo not given in full) was “inactive”. The value for `CC(=O)N[C@@H](Cc1c[nH]c2ccccc12)C(=O)N[C@H](C(=O)N[C@H](C(=O)N[C@@H](Cc1cnc[nH]1)C(=O)N[C@@H](CCCNC(N)=O)C(=O)N[C@@H](CC(C)C)C(=O)N[C@@H](C)C(=O)NCC(=O)N[C@@H](CC(C)C)C(=O)N[C@@H](CC(C)C)C(=O)N[C@@H](CO)C(=O)N[C@@H](CCCNC(N)=O)C(=O)N[C@@H](CO)C(=O)NCC(=O)NCC(=O)N[C@H](C(=O)N[C@H](C(=O)N[C@@H](CCCCNC(=N)N)C(=O)N[C@@H](CCCCN)C(=O)N[C@@H](CC(N)=O)C(=O)N[C@@H](Cc1ccc2ccccc2c1)C(=O)N[C@H](C(=O)N1CCC[C@H]1C(=O)N[C@H](C(=O)N[C@@H](CC(=O)O)C(=O)N[C@H](C(=O)NCC(=O)N1C2CCCCC2C[C@H]1C(=O)N[C@@H](Cc1ccccc1)C(=O)N[C@@H](C)C(=O)N[C@@H](Cc1ccc2ccccc2c1)C(N)=O)C(C)C)[C@@H](C)O)C(C)C)C(C)C)C(C)C)[C@@H](C)O)C(C)C` (stereo not given in full) was “inactive”.
